Here are results for 1 molecule from US20260262643A1, “HERBICIDAL BENZOXAZINES” (FMC CORPORATION, priority 2022, published 2026).

Structures are written as SMILES.

Experiment [1] deals with ryegrass, Italian. Briefly: Test A preemergence. In kind it is in vivo, Lolium multiflorum. As to conditions: Lolium multiflorum, pre-emergence, 240 h, 1000 g ai/ha, 0 to 100 scale (0 no effect, 100 complete control), 10 days, read-out: Plant response rating, Ryegrass, Italian. In outline: (§1)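 Visual injury ratings on a 0–100 scale (100 = complete control) versus untreated controls, taken 10 days after treatment in greenhouse. Preemergence: directed soil spray onto seeded loam/sand. Postemergence: foliar application at one- to two-leaf stage, plants 2–10 cm. Formulation: non-phytotoxic solvent plus surfactant.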

Experiment [2] has as its system wheat. Briefly: Test A postemergence. In kind it is in vivo, Triticum aestivum. As to conditions: Triticum aestivum, post-emergence, 240 h, 1000 g ai/ha, Postemergence; 0 to 100 scale; read-out: Plant response rating, Wheat. Put shortly:
as §1

Experiment [3] has as its system rice. Put plainly: Test B flooded paddy test. The class given is in vivo, Oryza sativa. As to conditions: Oryza sativa, 312 h; 250 g ai/ha, Flood, 13 days, 0 to 100 scale (0 no effect, 100 complete control); read-out: Plant response rating, Rice. Put shortly: (§2)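 Application into standing water (3 cm above soil) at the two-leaf stage; flood depth held constant. Evaluation: day 13, visual comparison with controls, 0 = no injury, 100 = complete control.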

Experiment [4] has as its system barnyardgrass. Put plainly: Test B flooded paddy test. The settings on record: Echinochloa crus-galli, 312 h, 250 g ai/ha, Flood, 13 days, 0 to 100 scale (0 no effect, 100 complete control); read-out: Plant response rating, Barnyardgrass. In kind it is in vivo, Echinochloa crus-galli. Put shortly: as §2
Experiment [5] has as its system ryegrass, Italian. Put plainly: Test A postemergence. In kind it is in vivo, Lolium multiflorum. As to conditions: Lolium multiflorum, post-emergence, 240 h, 1000 g ai/ha, Postemergence; 0 to 100 scale; read-out: Plant response rating, Ryegrass, Italian. Put shortly: as §1
Experiment [6] deals with ragweed. Put plainly: Test A preemergence. The class given is in vivo, Ambrosia artemisiifolia. The settings on record: Ambrosia artemisiifolia, pre-emergence, 240 h, 1000 g ai/ha, 0 to 100 scale (0 no effect, 100 complete control), 10 days, read-out: Plant response rating, Ragweed. In outline: as §1
The subject of experiment [7] is kochia. Briefly: Test A postemergence. In kind it is in vivo, Bassia scoparia. The settings on record: Bassia scoparia, post-emergence, 240 h, 1000 g ai/ha, Postemergence; 0 to 100 scale; read-out: Plant response rating, Kochia. In outline: as §1
Experiment [8] deals with galium. Briefly: Test A postemergence. The class given is in vivo, Galium aparine. The settings on record: Galium, post-emergence, 240 h, 1000 g ai/ha, Postemergence; 0 to 100 scale; read-out: Plant response rating, Galium. Put shortly:
as §1

In experiment [9] the test system is sedge, umbrella. Put plainly: Test B flooded paddy test. The class given is in vivo, Cyperus difformis. As to conditions: Cyperus difformis, 312 h; 250 g ai/ha, Flood, 13 days, 0 to 100 scale (0 no effect, 100 complete control); read-out: Plant response rating, Sedge, Umbrella. Put shortly: as §2
In experiment [10] the test system is ducksalad. Briefly: Test B flooded paddy test. The class given is in vivo, Heteranthera limosa. As to conditions: Heteranthera limosa, 312 h, 250 g ai/ha, Flood, 13 days, 0 to 100 scale (0 no effect, 100 complete control); read-out: Plant response rating, Ducksalad. Put shortly: as §2
Experiment [11] relates to Pigweed, Redroot. Briefly: Test A preemergence. The class given is in vivo, Amaranthus retroflexus. The settings on record: 1000 g ai/ha, 0 to 100 scale (0 no effect, 100 complete control), 10 days. In outline:
as §1

The test system of experiment [12] is foxtail, giant. Briefly: Test A preemergence. In kind it is in vivo, Setaria faberi. The settings on record: Setaria faberi, pre-emergence, 240 h, 1000 g ai/ha, 0 to 100 scale (0 no effect, 100 complete control), 10 days, read-out: Plant response rating, Foxtail, Giant. Put shortly: as §1
Experiment [13] relates to Pigweed, Redroot. Put plainly: Test A postemergence. The class given is in vivo, Amaranthus retroflexus. As to conditions: 1000 g ai/ha, Postemergence; 0 to 100 scale. In outline: as §1
Experiment [14] deals with barnyardgrass. Put plainly: Test A postemergence. The settings on record: 1000 g ai/ha, Postemergence; 0 to 100 scale. The class given is in vivo, Echinochloa crusgalli. Put shortly:
as §1

For experiment [15], the system named is ragweed. Put plainly: Test A postemergence. In kind it is in vivo, Ambrosia artemisiifolia. The settings on record: Ambrosia artemisiifolia, post-emergence, 240 h, 1000 g ai/ha, Postemergence; 0 to 100 scale; read-out: Plant response rating, Ragweed. Put shortly:
as §1

In experiment [16] the test system is barnyardgrass. Briefly: Test A preemergence. The class given is in vivo, Echinochloa crusgalli. The settings on record: 1000 g ai/ha, 0 to 100 scale (0 no effect, 100 complete control), 10 days. In outline:
as §1

For experiment [17], the system named is blackgrass. Put plainly: Test A postemergence. The class given is in vivo, Alopecurus myosuroides. The settings on record: Alopecurus myosuroides, post-emergence, 240 h, 1000 g ai/ha, Postemergence; 0 to 100 scale; read-out: Plant response rating, Blackgrass. In outline:
as §1

In experiment [18] the test system is foxtail, giant. Briefly: Test A postemergence. As to conditions: Setaria faberi, post-emergence, 240 h, 1000 g ai/ha, Postemergence; 0 to 100 scale; read-out: Plant response rating, Foxtail, Giant. In kind it is in vivo, Setaria faberi. In outline: as §1
For experiment [19], the system named is kochia. Put plainly: Test A preemergence. The settings on record: Bassia scoparia, pre-emergence, 240 h, 1000 g ai/ha, 0 to 100 scale (0 no effect, 100 complete control), 10 days, read-out: Plant response rating, Kochia. In kind it is in vivo, Bassia scoparia. Put shortly:
as §1

Experiment [20] relates to corn. Briefly: Test A postemergence. The class given is in vivo, Zea mays. The settings on record: Zea mays, post-emergence, 240 h, 1000 g ai/ha, Postemergence; 0 to 100 scale. Put shortly: as §1

`C[C@H]1CN(C(=O)c2cccc(-n3cncn3)c2)c2cccc(Cl)c2O1` [Compound 18, [(2S)-8-Chloro-2,3-dihydro-2-methyl-4H-1,4-benzoxazin-4-yl][3-(1H-1,2,4-triazol-1-yl)phenyl]methanone]: the pest or weed control at 1000 g/ha in experiment [1] turned out to be 90%; in [5], 80%; in experiment [6], 80%; in experiment [7], 50%; in experiment [8], 90%; in experiment [12], 100%. Moreover, the pest or weed control at 1000 g/ha is 20% in [15], 70% in [17], 90% in experiment [18] and 70% in experiment [19]. Also, the plant injury at 1000 g/ha in experiment [2] was found to be 0%. Also, in experiment [3], the plant injury at 250 g/ha worked out at 0%. Moreover, the pest or weed control at 250 g/ha in [4], in [9] and in [10] was 0% throughout. The “Plant response rating, Pigweed, Redroot” value in [11] is 100; in experiment [13] it was 40. The “Plant response rating, Barnyardgrass” value in [14] is reported as 70; in experiment [16], 90. The molecule further came in with a Corn plant response rating (crop injury, 0 = no effect, 100 = complete kill) at 1000 g/ha in experiment [20] of 40%.
